The values below are quoted from earlier work in US6776977B2, “Polypodal chelants for metallopharmaceuticals” (Bristol-Myers Squibb Pharma Company, priority 2001, dated 2004).

For the series the following is noted: decomposition under acidic conditions.

For the molecule `O=C([O-])CN(CCN(CC(=O)[O-])CC(=O)[O-])CCN(CC(=O)[O-])CC(=O)[O-].[Gd+3]` [Gd(DTPA)^2−], the Kobs was 0.0012 s⁻¹.
